Values of other authors as cited in patent US8187629B2, “Non-lamellar compositions of DOPE and P80” (Camurus AB, priority 2004, dated 2012).

Details: room temperature; greater at physiological temperature

CCCCCCCC/C=C\CCCCCCCC(=O)OCC(O)CO (stereo not shown) [GMO, glycerol monooleate]
equilibrium water solubility: at least 10^−7 M
